For 24 molecules, EC50 results are on record in patent US9556169B2, “Compounds and compositions for the treatment of parasitic diseases” (NOVARTIS AG, priority 2012, dated 2017).

For assay [1], the system named is Plasmodium berghei line expressing luciferase (Pb-luc) sporozoites. The assay is described as follows: Liver stage P. berghei luciferase proliferation assay in CD81-GFP-HepG2 cells. Type of assay: cell-based. As for the experimental part:
Liver Stage P. berghei Luciferase Proliferation Assay
CD81-GFP-HepG2 cells (obtained from the lab of Dominique Mazier) were seeded into GNF custom Greiner plates (1536-well, white, TC-treated, solid bottom). A final density of 3000 cells/well was achieved by dispensing 5 ul per well of a 600,000 cells/mL resuspended in Assay Media (AM; phenol-red free DMEM, 2% FBS, 5×PSG) via a MicroFlo (Biotek; 5 ul dispense cassette). The seeded assay plates were incubated overnight at 37° C. in an incubator with 5% CO2. The following day, a 10 nL volume of compound was transferred acoustically (ECHO 525, Labcyte Inc.) to each well in the assay plate. Sporozoite forms of a Plasmodium berghei line expressing luciferase (Pb-luc) were dissected and purified from infected Anopheles stephensi mosquitoes (provided by the NYU insectary) as previously described by Meister et al. (Science, 2011). Purified sporozoites (spz) were stored at 250 spz/uL in chilled PBS supplemented with 3% BSA. 3 uL of Pb-luc spz solution was dispensed to each assay well using a Bottlevalve equipped with a custom, single-tip dispense head (GNF Systems). Assay plates were centrifuged at 330×g for 3 minutes to pellet the spz, then the assay plates were returned to the 37° C. incubator for 48 h. Luciferase signal, which corresponds with parasite proliferation, was detected by adding 2 uL of BrightGlo (Promega) to each well using the MicroFlo (Biotek; 1 ul cassette). Luminescence was immediately measured on an Envision MultiLabel Plate Reader (PerkinElmer).

The test system of assay [2] is P. falciparum (NF54 or 3D7 strain). The assay is described as follows: P. falciparum proliferation assay in infected human blood cells (SYBR Green). The format is cell-based. Conditions: Plasmodium falciparum, Erythrocyte, read-out: EC50 (nM), inhibitory efficacy in delaying P. falciparum proliferation in infected human blood cells. On the procedure: Assay for P. falciparum Proliferation in Infected Human Blood Cells
Compounds of the invention can be assayed to measure their capacity to inhibit proliferation of P. falciparum parasitemia in infected red blood cells. This parasite proliferation assay measures the increase in parasite DNA content using a DNA intercalating dye, SYBR Green® (INVITROGEN®) which has a high affinity for double stranded DNA.
NF54 or 3D7 P. falciparum strain is grown in complete culturing media until parasitemia reaches 3% to 8% with O+ human erythrocytes. […] 20 μl of screening media is dispensed into 384 well assay plates. 50 nl of compounds of the invention (in DMSO), including antimalarial controls (mefloquine, pyrimethamine and artemisinin), are then transferred into the assay plates, as well as DMSO alone to serve as a negative control for inhibition. Then 30 μl of a suspension of a NF54 or 3D7 P. falciparum infected erythrocytes in screening media is dispensed into the assay plates such that the final hematocrit is 2.5% with a final parasitemia of 0.3%. The plates are placed in a 37° C. incubator for 72 hours in a low oxygen environment containing 93% N2, 4% CO2, and 3% O2 gas mixture. 10 μl of lysis buffer (saponin, triton-X, EDTA) containing a 10× solution of SYBR Green I® in RPMI media is dispensed into the plates. The plates are lidded and kept at room temperature overnight for the lysis of the infected red blood cells. The fluorescence intensity is measured (excitation 425 nm, emission 530 nm) using the Envision™ system (Perkin Elmer). The percentage inhibition of 50%, EC50, is calculated for each compound.

Where [3] appears, read: read-out: EC50, P. berghei luciferase Proliferation Assay.
The mark [4] stands for this setting: values marked * in Table 2, CD81-GFP-HepG2 cells, 48 h, luminescence, read-out: EC50 (nM), P. berghei luciferase Proliferation Assay.
Where [5] appears, read: infected human erythrocytes, 72 hours, SYBR Green fluorescence.

Like-named read-outs stand apart in the source and are kept apart here.

`CNC(=O)c1ccc(-c2cnn3ccc(C(=O)N(NC)c4ccc(C#N)cc4)cc23)cn1` [Example 92, 5-(5-(1-(4-cyanophenyl)-2-methylhydrazinecarbonyl)pyrazolo[1,5-a]pyridin-3-yl)-N-methyl picolinamide]: the EC50 was no more than 20 nM in assay [1] (setting [3]), 15 nM in assay [1] (setting [4]) and 24 nM in assay [2] (setting [5]).
Turning to `CNC(=O)c1ccc(-c2cnn3ccc(N(C)C(=O)c4ccc(C#N)cn4)cc23)cc1` [Example 94, 5-cyano-N-methyl-N-(3-(4-(methylcarbamoyl)phenyl)pyrazolo[1,5-a]pyridin-5-yl)picolinamide], the EC50 in assay [1] (setting [3]) is no more than 20 nM; in assay [1] (setting [4]), 13 nM; in assay [2] (setting [5]) it was 17 nM.
Taken in the same sequence, the figures for `CCN(C(=O)c1ccn2ncc(-c3ccc(C(=O)NC)cc3)c2c1)c1ccc(F)cn1` [Example 95, N-ethyl-N-(5-fluoropyridin-2-yl)-3-(4-(methylcarbamoyl)phenyl)pyrazolo[1,5-a]pyridine-5-carboxamide] were no more than 20 nM, 5 nM and 23 nM.
On to `CCN(C(=O)c1ccn2ncc(-c3ccc(C(=O)NC)cc3)c2c1)c1ccc(C(F)(F)F)cn1` [Example 96, N-ethyl-3-(4-(methylcarbamoyl)phenyl)-N-(5-(trifluoromethyl)pyridin-2-yl)pyrazolo[1,5-a]pyridine-5-carboxamide], for which the EC50 in assay [1] (setting [3]) is no more than 20 nM; in assay [1] (setting [4]), 4 nM; in assay [2] (setting [5]) it was 12 nM.
On to `CNC(=O)c1ccc(-c2cnn3ccc(C(=O)N(c4ccc(C#N)cn4)C4CCCC4)cc23)cc1` [Example 126, N-(5-Cyanopyridin-2-yl)-N-cyclopentyl-3-(4-(methylcarbamoyl)phenyl)pyrazolo[1,5-a]pyridine-5-carboxamide], for which the EC50 in assay [2] (setting [5]) was 67 nM.
Same read-out and setting: under `CCNC(=O)c1ccc(-c2cnn3ccc(C(=O)N(c4ccc(C#N)cn4)C4CC4)cc23)cc1` [Example 127, N-(5-Cyanopyridin-2-yl)-N-cyclopropyl-3-(4-(ethylcarbamoyl)phenyl)pyrazolo[1,5-a]pyridine-5-carboxamide] stands 49 nM; under `CNC(=O)c1ccc(-c2cnn3ccc(C(=O)N(c4ccc(C(=O)O)cn4)C4CC4)cc23)cc1` [Example 128, 6-(N-Cyclopropyl-3-(4-(methylcarbamoyl)phenyl)pyrazolo[1,5-a]pyridine-5-carboxamido) nicotinic acid], 4270 nM; under `CNC(=O)c1ccc(-c2cnn3ccc(C(=O)N(c4ccc(C(N)=O)cn4)C4CC4)cc23)cc1` [Example 129, N-(5-Carbamoylpyridin-2-yl)-N-cyclopropyl-3-(4-(methylcarbamoyl)phenyl)pyrazolo[1,5-a]pyridine-5-carboxamide], 2440 nM.
For the molecule `CNC(=O)c1ccc(-c2cnn3ccc(C(=O)N(c4ccc(F)c(F)c4)C4CC4)cc23)cc1` [Example 130, N-Cyclopropyl-N-(3,4-difluorophenyl)-3-(4-(methylcarbamoyl)phenyl)pyrazolo[1,5-a]pyridine-5-carboxamide], the EC50 in assay [2] (setting [5]) was 12 nM.
As for `N#Cc1ccc(N(C(=O)c2ccn3ncc(-c4ccc(C(=O)NC5COC5)cc4)c3c2)C2CC2)nc1` [Example 131, N-(5-Cyanopyridin-2-yl)-N-cyclopropyl-3-(4-(oxetan-3-ylcarbamoyl)phenyl)pyrazolo[1,5-a]pyridine-5-carboxamide], the EC50 in assay [2] (setting [5]) was 324 nM.
The same measure, in the same setting: for `CNC(=O)c1ccc(-c2cnn3ccc(C(=O)N(c4ccc(C(F)(F)F)cn4)C4CC4)cc23)cc1` [Example 132, N-Cyclopropyl-3-(4-(methylcarbamoyl)phenyl)-N-(5-(trifluoromethyl)pyridin-2-yl)pyrazolo[1,5-a]pyridine-5-carboxamide] the value was 29 nM.
In the case of `CNC(=O)c1ccc(-c2cnn3ccc(C(=O)N(c4ccc(C#N)cn4)C4CC4)cc23)nc1` [Example 133, N-(5-Cyanopyridin-2-yl)-N-cyclopropyl-3-(5-(methylcarbamoyl)pyridin-2-yl)pyrazolo[1,5-a]pyridine-5-carboxamide], the results for the EC50 in assay [1] (setting [4]) and in assay [2] (setting [5]) were 34 nM and 58 nM, respectively.
On to `N#Cc1ccc(N(C(=O)c2ccn3ncc(-c4ccc(C(N)=O)cc4)c3c2)C2CC2)cc1` [Example 134, 3-(4-carbamoylphenyl)-N-(4-cyanophenyl)-N-cyclopropylpyrazolo[1,5-a]pyridine-5-carboxamide], for which, in assay [2] (setting [5]), the EC50 was found to be 4 nM.
On the same count and under the same terms, under `NC(=O)c1ccc(-c2cnn3ccc(C(=O)N(c4ccc(F)c(F)c4)C4CC4)cc23)cc1` [Example 135, 3-(4-Carbamoylphenyl)-N-cyclopropyl-N-(3,4-difluorophenyl)pyrazolo[1,5-a]pyridine-5-carboxamide] stands 1 nM.
For `CNC(=O)c1ccc(-c2cnn3ccc(C(=O)N(c4ccc(C)cn4)C4CC4)cc23)cc1` [Example 136, N-Cyclopropyl-3-(4-(methylcarbamoyl)phenyl)-N-(5-methylpyridin-2-yl)pyrazolo[1,5-a]pyridine-5-carboxamide], the EC50 in assay [1] (setting [4]) is 10 nM.
Regarding `CNC(=O)c1ccc(-c2cnn3ccc(C(=O)N(c4ccc(C#N)cc4)C4CC4)cc23)cn1` [Example 137, N-(4-Cyanophenyl)-N-cyclopropyl-3-(6-(methylcarbamoyl)pyridin-3-yl)pyrazolo[1,5-a]pyridine-5-carboxamide], the EC50 in assay [1] (setting [4]) amounted to 10 nM; in assay [2] (setting [5]), 12 nM.
Consider `N#Cc1ccc(N(C(=O)c2ccn3ncc(-c4ccc(C(N)=O)nc4)c3c2)C2CC2)cc1` [Example 138, 3-(6-Carbamoylpyridin-3-yl)-N-(4-cyanophenyl)-N-cyclopropylpyrazolo[1,5-a]pyridine-5-carboxamide], for which the EC50 in assay [2] (setting [5]) is 10 nM.
For the molecule `N#Cc1ccc(N(C(=O)c2ccn3ncc(-c4ccc(C(N)=O)cn4)c3c2)C2CC2)nc1` [Example 139, 3-(5-Carbamoylpyridin-2-yl)-N-(5-cyanopyridin-2-yl)-N-cyclopropylpyrazolo[1,5-a]pyridine-5-carboxamide], in assay [2] (setting [5]), the EC50 came to 30 nM.
`CNC(=O)c1ccc(-c2cnn3ccc(C(=O)N(c4ccc(C#N)cc4)C4CC4)cc23)nc1` [Example 141, N-(4-Cyanophenyl)-N-cyclopropyl-3-(5-(methylcarbamoyl)pyridin-2-yl)pyrazolo[1,5-a]pyridine-5-carboxamide]: the EC50 in assay [1] (setting [4]) came out at 17 nM; in assay [2] (72 h), 65 nM.
On to `N#Cc1ccc(N(C(=O)c2ccn3ncc(-c4ccc(C(N)=O)cn4)c3c2)C2CC2)cc1` [Example 142, 3-(5-Carbamoylpyridin-2-yl)-N-(4-cyanophenyl)-N-cyclopropylpyrazolo[1,5-a]pyridine-5-carboxamide], for which the EC50 in assay [2] (72 h) worked out at 48 nM.
Take `CNC(=O)c1ccc(-c2cnn3ccc(C(=O)N(c4ccc(Cl)cc4)C4CC4)cc23)cn1` [Example 143, N-(4-Chlorophenyl)-N-cyclopropyl-3-(6-(methylcarbamoyl)pyridin-3-yl)pyrazolo[1,5-a]pyridine-5-carboxamide]: the EC50 in assay [1] (setting [4]) turned out to be 7 nM; in assay [2] (setting [5]), 12 nM.
Taken in the same sequence, the figures for `CNC(=O)c1ccc(-c2cnn3ccc(C(=O)N(c4ccc(C#N)cn4)C4CCC4)cc23)cn1` [Example 144, N-(5-Cyanopyridin-2-yl)-N-cyclobutyl-3-(6-(methylcarbamoyl)pyridin-3-yl)pyrazolo[1,5-a]pyridine-5-carboxamide] were 22 nM and 27 nM.
Regarding `CNC(=O)c1ccc(-c2cnn3ccc(S(=O)(=O)N(c4ccc(C#N)cn4)C4CC4)cc23)cc1` [Example 164, 4-(5-(N-(5-Cyanopyridin-2-yl)-N-cyclopropylsulfamoyl)pyrazolo[1,5-a]pyridin-3-yl)-N-methylbenzamide], in assay [2] (setting [5]), the EC50 stood at 2 nM.
On the same count and under the same terms, for `N#Cc1ccc(N(C2CC2)S(=O)(=O)c2ccn3ncc(-c4ccc(C(N)=O)cc4)c3c2)nc1` [Example 165, 4-(5-(N-(5-cyanopyridin-2-yl)-N-cyclopropylsulfamoyl)pyrazolo[1,5-a]pyridin-3-yl)benzamide] the value was 3 nM.
